From US20260053935A1, “METHODS AND COMPOSITIONS FOR TREATING CANCER WITH CANCER-BINDING ADJUVANTS” (THE UNIVERSITY OF CHICAGO, priority 2022, published 2026)
Values belong to the compound of their own block, whether it stands above or below them.

Legend:
C1498 cells = assay: In vitro cancer cell binding of dye-labeled polymer to AML cells
Text: Flow cytometric analysis of dye labeled PDS-containing polymers binding to C1498 cells in a (A) polymer dose-dependent manner.
They also investigated the effect of cytarabine pre-treatment on polymer binding, both in a dose and time dependent manner.

[1] = In vivo polymer biodistribution (tissue homogenate fluorescence); conditions: cytarabine one day before polymer i.v.
Text: To achieve this, they inoculated normal B6 mice with C1498. After one day, one group of mice received a dose of cytarabine. […] Eight hours after this injection, mice were sacrificed, and tissues were harvested for homogenization and subsequent fluorescence quantification using a microplate reader. Fluorescence values were normalized per mg of tissue.

RAW 264.7 macrophages = assay: Cytotoxicity to RAW 264.7 macrophages (Zombie Aqua viability dye); assay type: cell-based; conditions: 24 hours after treatment; vs media alone
[2] = test system: pro-inflammatory cytokines; assay: Serum cytokine analysis in MC38 tumor-bearing mice; assay type: in vivo; conditions: i.t. on a TLR7 equimolar basis; 6 hours after injection; vs PBS or vehicle control
Experimental: As a comparison, other mice were injected with TLR7/8 agonist telratolimod (3M-052, MedChemExpress, cat. no. HY-109104) in 10% DMSO, 40% PEG300 (Sigma Aldrich, cat. no. 8.07484), and 5% Tween-80 in PBS (Sigma Aldrich, cat. no. P8074) (with additional vehicle control mice). Six hours after injection, plasma was collected via submandibular bleed and analyzed for pro-inflammatory cytokines using LEGENDplex Mouse Inflammation Panel Assay (BioLegend, cat. no. 740446).

Structure (SMILES): Nc1ccn([C@@H]2O[C@H](CO)[C@@H](O)[C@@H]2O)c(=O)n1 [cytarabine]
efficiency of polymer binding to C1498 cells after cytarabine pre-treatment (duration) (C1498 cells; cytarabine given too far from polymer treatment): decreases binding efficiency of PDS-containing polymers
efficiency of polymer binding to C1498 cells after cytarabine pre-treatment (dose) (C1498 cells; cytarabine pre-treatment for 4 hours): increased the efficiency of polymer binding in a dose-dependent manner
effect of cytarabine pre-treatment on tissue biodistribution of polymer [1]: does not significantly alter the tissue biodistribution of polymer

Structure (SMILES): CCOCc1nc2c(N)nc3ccccc3c2n1CC(C)(C)O [R848]
live cells as a percent of total cells (RAW 264.7 macrophages): no significant change from the media alone control wells

systemic inflammatory cytokines (IFN-γ, IL-6, MCP-1, IFN-β, IL-27) [2]: produced significant upregulation
Structure (SMILES): CCCCCCCCCCCCCCCCCC(=O)NCCCCOn1c(CCCC)nc2c(N)nc3ccccc3c21 [3M-052]
